Source: patent US20140142053A1, “Use of a Composition Comprising Acylated Steryl Glucoside in the Manufacture of a Product” (UNIVERSITI PUTRA MALAYSIA, priority 2011, published 2014)

Tests used:
[1] = test system: low-density lipoprotein (LDL); test: percentage change in low-density lipoprotein in diabetic rats (FIG. 5); type: in vivo, rat; conditions: compared to white rice-fed and tween-treated rats
[2] = test system: high-density lipoprotein (HDL); test: percentage change in high-density lipoprotein in diabetic rats (FIG. 7); type: in vivo, rat; conditions: A200: ASG in 200 mg/kg body weight, compared to white-rice fed and metformin-treated rats

Molecule | LDL level (percentage change in low-density lipoprotein) ([1]; fed/treated groups) | HDL level (percentage change in high-density lipoprotein) [2] | LDL level (percentage change in low-density lipoprotein) ([1]; A100: ASG in 100 mg/kg body weight) | LDL level (percentage change in low-density lipoprotein) ([1]; A200: ASG in 200 mg/kg body weight)
CN(C)C(=N)N=C(N)N [metformin, reference compound] | reduced |  |  | 
acylated steryl glucoside [ASG] |  | increased | reduced | reduced
